Columns and labels:
Assay in all cases: Kinase profiling
Assay type in all cases: biochemical
AMPKalpha1 = biological target: T1, AMPKalpha1 (Homo sapiens, UniProt Q13131)
T1 construct: purchased ProQinase (Freiburg, Germany)
Procedure: (§1) The analysis was performed by ProQinase (Freiburg, Germany).

BMPR1A = biological target: T2, BMPR1A (Homo sapiens, UniProt P36894)
T2 construct: purchased ProQinase (Freiburg, Germany)
Procedure: as §1

BTK = biological target: T3, BTK (Homo sapiens, UniProt Q06187)
T3 construct: purchased ProQinase (Freiburg, Germany)
Procedure: as §1

CDK16/CycY = biological target: T4, CDK16/CycY (Homo sapiens, UniProt Q00536)
T4 construct: purchased ProQinase (Freiburg, Germany)
Procedure: as §1

DYRK3 = biological target: T5, DYRK3 (Homo sapiens, UniProt O43781)
T5 construct: purchased ProQinase (Freiburg, Germany)
T5 sequence (O43781 1-588): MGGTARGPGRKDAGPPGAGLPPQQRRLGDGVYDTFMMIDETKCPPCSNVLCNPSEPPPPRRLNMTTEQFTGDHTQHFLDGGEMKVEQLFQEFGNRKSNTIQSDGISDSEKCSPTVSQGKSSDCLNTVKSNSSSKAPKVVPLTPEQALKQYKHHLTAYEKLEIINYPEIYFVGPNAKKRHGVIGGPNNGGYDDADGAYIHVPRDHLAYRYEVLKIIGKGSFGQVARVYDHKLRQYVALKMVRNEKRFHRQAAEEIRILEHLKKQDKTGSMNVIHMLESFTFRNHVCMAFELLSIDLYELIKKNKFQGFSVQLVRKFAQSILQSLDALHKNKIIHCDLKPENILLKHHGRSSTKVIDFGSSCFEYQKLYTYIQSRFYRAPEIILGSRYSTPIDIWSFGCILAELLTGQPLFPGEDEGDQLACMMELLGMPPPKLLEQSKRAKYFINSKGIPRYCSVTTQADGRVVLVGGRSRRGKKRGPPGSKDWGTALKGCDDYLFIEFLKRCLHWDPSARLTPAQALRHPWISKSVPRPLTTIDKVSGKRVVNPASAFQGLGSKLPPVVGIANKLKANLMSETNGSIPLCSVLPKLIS
Procedure: as §1

IKKbeta = biological target: T6, IKKbeta (Homo sapiens, UniProt O14920)
T6 construct: purchased ProQinase (Freiburg, Germany)
T6 sequence (O14920 1-756): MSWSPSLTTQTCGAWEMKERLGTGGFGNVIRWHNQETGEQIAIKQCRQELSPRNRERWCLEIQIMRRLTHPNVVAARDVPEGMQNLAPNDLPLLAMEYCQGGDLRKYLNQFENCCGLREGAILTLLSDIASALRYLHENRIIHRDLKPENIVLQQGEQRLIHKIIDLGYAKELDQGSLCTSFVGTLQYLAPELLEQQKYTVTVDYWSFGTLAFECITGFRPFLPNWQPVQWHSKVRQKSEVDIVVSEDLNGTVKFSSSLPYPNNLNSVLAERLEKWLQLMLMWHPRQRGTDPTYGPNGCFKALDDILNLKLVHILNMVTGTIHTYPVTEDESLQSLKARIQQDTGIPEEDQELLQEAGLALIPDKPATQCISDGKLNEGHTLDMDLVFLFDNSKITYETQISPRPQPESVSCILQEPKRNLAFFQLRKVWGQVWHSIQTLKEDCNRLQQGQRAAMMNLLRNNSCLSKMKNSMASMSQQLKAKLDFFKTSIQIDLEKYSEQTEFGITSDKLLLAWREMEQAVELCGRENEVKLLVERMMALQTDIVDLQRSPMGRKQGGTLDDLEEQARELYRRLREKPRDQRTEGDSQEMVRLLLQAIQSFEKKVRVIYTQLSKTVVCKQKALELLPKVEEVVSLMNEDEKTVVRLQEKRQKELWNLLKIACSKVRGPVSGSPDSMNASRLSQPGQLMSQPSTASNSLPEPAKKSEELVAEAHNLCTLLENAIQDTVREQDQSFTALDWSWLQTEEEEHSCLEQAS
Procedure: as §1

MAP3K9 = biological target: T7, MAP3K9 (Homo sapiens, UniProt P80192)
T7 construct: purchased ProQinase (Freiburg, Germany)
Procedure: as §1

MKK4 = biological target: T8, MKK4 (Homo sapiens, UniProt P45985)
T8 construct: purchased ProQinase (Freiburg, Germany)
T8 sequence (P45985 1-399): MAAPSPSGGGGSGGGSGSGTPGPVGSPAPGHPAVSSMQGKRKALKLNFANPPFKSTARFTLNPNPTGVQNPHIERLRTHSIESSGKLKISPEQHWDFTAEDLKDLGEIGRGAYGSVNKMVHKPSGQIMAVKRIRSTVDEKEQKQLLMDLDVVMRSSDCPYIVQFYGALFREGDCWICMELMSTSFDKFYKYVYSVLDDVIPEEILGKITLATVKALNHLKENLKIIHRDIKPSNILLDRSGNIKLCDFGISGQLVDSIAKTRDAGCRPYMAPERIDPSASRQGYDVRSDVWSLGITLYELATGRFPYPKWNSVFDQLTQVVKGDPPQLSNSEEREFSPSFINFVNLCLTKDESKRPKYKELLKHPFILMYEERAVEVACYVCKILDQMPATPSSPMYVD
Procedure: as §1

PKCbeta2 = biological target: T9, PKCbeta2 (Homo sapiens, UniProt P05771)
T9 construct: purchased ProQinase (Freiburg, Germany)
Procedure: as §1

RIPK2 = biological target: T10, RIPK2 (Homo sapiens, UniProt O43353)
T10 construct: purchased ProQinase (Freiburg, Germany)
Procedure: as §1

ROCK1 = biological target: T11, ROCK1 (Homo sapiens, UniProt Q13464)
T11 construct: purchased ProQinase (Freiburg, Germany)
Procedure: as §1

ROCK2 = biological target: T12, ROCK2 (Homo sapiens, UniProt O75116)
T12 construct: purchased ProQinase (Freiburg, Germany)
Procedure: as §1

TSSK1 = biological target: T13, TSSK1 (Homo sapiens, UniProt Q9BXA7)
T13 construct: purchased ProQinase (Freiburg, Germany)
T13 sequence (Q9BXA7 1-367): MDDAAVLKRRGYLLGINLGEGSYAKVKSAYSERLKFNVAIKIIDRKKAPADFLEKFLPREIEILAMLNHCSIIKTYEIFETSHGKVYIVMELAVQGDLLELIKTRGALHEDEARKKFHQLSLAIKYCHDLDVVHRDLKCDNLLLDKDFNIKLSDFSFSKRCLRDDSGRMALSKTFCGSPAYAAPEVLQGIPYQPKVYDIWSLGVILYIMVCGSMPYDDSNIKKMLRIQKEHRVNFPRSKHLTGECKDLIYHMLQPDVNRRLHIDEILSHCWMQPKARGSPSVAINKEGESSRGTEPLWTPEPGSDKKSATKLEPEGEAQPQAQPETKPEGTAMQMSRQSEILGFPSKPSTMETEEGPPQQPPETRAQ
Procedure: as §1

T9 sequence (P05771 1-673 isoform P05771-2): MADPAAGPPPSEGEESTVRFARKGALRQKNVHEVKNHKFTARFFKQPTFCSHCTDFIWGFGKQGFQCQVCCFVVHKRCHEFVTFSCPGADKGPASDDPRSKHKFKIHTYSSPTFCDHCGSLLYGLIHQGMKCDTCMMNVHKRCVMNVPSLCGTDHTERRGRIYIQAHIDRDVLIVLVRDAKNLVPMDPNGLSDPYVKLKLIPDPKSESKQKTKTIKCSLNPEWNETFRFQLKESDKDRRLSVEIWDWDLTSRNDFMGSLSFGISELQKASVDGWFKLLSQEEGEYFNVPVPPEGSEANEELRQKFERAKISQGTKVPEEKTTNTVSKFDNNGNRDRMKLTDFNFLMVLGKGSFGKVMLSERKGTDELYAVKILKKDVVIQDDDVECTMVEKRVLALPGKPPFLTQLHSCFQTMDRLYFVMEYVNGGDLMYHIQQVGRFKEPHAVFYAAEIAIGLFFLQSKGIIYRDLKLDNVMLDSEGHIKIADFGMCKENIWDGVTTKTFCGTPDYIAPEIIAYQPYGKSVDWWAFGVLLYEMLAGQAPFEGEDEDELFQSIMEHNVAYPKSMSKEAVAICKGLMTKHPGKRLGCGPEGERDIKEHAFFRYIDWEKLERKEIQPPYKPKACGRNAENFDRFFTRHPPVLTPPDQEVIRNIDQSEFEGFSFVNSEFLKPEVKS
T7 sequence (P80192 whole entry): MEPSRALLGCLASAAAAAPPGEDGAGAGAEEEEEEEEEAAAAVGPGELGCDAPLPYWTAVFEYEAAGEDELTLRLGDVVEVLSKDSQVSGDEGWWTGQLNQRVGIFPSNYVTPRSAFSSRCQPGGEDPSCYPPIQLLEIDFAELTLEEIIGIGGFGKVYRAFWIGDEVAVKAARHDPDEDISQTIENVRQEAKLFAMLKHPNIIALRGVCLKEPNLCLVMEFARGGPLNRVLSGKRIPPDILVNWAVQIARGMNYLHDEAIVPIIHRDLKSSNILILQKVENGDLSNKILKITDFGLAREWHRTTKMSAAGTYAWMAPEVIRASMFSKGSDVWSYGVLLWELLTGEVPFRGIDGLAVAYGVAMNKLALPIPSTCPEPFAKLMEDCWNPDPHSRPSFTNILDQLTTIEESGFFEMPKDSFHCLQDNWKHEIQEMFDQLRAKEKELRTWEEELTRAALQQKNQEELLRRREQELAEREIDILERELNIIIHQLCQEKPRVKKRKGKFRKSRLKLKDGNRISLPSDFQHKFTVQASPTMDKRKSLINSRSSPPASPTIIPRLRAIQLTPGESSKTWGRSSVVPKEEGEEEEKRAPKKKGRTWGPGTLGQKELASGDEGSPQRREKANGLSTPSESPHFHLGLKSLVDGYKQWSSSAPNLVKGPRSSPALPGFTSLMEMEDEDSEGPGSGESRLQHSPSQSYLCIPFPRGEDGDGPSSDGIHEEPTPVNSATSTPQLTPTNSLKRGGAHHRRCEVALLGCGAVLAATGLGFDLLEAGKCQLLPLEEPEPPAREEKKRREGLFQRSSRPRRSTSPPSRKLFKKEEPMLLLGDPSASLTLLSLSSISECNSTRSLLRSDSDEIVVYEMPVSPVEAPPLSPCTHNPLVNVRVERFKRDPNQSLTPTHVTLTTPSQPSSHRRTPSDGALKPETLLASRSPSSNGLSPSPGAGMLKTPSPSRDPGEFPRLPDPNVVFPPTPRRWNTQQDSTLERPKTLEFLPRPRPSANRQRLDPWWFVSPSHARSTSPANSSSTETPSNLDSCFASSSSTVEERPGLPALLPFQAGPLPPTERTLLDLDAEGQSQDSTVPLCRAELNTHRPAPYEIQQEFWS
T10 sequence (O43353 whole entry): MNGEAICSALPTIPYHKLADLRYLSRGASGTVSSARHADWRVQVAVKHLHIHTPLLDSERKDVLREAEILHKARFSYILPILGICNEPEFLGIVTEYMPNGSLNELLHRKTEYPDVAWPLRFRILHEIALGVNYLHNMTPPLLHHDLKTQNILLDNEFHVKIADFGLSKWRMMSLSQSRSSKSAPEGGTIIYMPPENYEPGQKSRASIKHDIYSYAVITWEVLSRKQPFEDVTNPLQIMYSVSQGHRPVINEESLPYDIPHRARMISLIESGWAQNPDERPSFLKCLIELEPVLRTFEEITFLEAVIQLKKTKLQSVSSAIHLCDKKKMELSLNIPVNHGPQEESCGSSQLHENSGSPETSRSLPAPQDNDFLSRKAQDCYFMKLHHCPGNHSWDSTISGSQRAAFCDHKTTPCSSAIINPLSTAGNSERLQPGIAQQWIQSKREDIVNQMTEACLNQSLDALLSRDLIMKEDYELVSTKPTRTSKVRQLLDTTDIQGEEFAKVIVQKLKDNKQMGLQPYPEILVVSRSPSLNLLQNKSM
T11 sequence (Q13464 whole entry): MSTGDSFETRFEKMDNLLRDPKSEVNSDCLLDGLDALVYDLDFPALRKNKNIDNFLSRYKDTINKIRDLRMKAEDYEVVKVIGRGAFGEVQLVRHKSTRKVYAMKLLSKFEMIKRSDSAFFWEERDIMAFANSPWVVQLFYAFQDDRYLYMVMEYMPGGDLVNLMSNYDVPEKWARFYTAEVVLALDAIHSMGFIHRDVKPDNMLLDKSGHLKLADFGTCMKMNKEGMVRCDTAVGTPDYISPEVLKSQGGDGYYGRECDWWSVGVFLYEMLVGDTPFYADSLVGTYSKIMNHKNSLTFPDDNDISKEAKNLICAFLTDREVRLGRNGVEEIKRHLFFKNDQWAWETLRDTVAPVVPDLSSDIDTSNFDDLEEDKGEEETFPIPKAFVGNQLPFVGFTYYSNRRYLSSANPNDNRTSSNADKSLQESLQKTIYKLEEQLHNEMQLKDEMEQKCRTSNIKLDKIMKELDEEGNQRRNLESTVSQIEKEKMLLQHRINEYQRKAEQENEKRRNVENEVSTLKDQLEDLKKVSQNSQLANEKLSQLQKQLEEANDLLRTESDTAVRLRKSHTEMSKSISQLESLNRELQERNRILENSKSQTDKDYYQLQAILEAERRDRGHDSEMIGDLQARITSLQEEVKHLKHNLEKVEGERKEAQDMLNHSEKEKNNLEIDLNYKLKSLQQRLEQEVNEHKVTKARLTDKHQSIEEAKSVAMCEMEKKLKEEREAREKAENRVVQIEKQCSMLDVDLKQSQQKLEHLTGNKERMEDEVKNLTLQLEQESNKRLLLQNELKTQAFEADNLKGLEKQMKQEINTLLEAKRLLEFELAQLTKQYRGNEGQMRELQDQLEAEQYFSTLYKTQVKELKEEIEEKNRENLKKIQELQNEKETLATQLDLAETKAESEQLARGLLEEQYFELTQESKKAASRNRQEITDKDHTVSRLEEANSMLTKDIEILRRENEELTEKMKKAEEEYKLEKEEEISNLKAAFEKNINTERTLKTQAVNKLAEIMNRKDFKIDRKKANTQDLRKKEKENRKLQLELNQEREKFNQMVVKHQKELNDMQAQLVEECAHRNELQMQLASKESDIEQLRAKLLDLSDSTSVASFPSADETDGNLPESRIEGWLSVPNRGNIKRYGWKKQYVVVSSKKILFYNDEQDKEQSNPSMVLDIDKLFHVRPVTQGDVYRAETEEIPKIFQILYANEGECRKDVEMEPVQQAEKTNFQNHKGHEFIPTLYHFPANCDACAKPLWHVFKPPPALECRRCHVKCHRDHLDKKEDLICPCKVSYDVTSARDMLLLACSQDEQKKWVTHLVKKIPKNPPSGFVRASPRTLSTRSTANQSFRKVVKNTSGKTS
T2 sequence (P36894 24-532): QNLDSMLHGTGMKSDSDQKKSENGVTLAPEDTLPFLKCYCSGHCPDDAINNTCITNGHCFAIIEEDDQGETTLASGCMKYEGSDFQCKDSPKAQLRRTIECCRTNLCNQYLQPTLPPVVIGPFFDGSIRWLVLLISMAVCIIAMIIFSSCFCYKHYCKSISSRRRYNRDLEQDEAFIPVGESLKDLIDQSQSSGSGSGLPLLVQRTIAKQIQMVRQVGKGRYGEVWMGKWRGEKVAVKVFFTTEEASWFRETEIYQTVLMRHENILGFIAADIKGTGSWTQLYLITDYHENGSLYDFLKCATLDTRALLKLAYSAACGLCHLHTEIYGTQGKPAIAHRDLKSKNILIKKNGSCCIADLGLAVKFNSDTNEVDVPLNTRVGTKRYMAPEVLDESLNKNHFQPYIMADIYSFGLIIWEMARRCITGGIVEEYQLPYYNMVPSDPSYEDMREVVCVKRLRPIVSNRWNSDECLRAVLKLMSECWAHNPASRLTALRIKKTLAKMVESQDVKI
T1 sequence (Q13131 10-559 limits assumed): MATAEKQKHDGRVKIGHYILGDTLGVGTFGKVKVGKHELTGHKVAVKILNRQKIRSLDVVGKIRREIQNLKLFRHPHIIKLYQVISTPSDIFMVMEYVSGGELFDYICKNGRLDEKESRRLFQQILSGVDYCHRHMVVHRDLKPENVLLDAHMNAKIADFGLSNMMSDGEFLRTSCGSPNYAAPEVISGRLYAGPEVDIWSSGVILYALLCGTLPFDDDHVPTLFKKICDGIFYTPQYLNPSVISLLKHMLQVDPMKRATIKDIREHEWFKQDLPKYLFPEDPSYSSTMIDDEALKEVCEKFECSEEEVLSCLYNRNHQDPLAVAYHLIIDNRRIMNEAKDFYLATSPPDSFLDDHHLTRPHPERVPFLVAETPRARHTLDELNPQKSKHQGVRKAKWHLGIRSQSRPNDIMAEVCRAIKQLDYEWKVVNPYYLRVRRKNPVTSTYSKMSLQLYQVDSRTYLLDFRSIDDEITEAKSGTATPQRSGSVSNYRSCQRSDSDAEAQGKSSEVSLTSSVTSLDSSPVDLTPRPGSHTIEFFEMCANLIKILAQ

SMILES	Residual activity (AMPKalpha1; 1.0E-05 M)	Residual activity (AMPKalpha1; 1.0E-06 M)	Residual activity (BMPR1A; 1.0E-05 M)	Residual activity (BMPR1A; 1.0E-06 M)	Residual activity (BTK; 1.0E-05 M)	Residual activity (BTK; 1.0E-06 M)	Residual activity (CDK16/CycY; 1.0E-05 M)	Residual activity (CDK16/CycY; 1.0E-06 M)	Residual activity (DYRK3; 1.0E-05 M)	Residual activity (DYRK3; 1.0E-06 M)	Residual activity (IKKbeta; 1.0E-05 M)	Residual activity (IKKbeta; 1.0E-06 M)	Residual activity (MAP3K9; 1.0E-05 M)	Residual activity (MAP3K9; 1.0E-06 M)	Residual activity (MKK4; 1.0E-05 M)	Residual activity (MKK4; 1.0E-06 M)	Residual activity (PKCbeta2; 1.0E-05 M)	Residual activity (PKCbeta2; 1.0E-06 M)	Residual activity (RIPK2; 1.0E-05 M)	Residual activity (RIPK2; 1.0E-06 M)	other results
O=C(Cc1ccccc1)Nc1ccc(F)c(Nc2ccc3c(c2)CCCCC3=O)c1 [Compound 100]	101 % of control	112 % of control	82 % of control	101 % of control	78 % of control	99 % of control	101 % of control	99 % of control	104 % of control	98 % of control	99 % of control	110 % of control	96 % of control	102 % of control	110 % of control	94 % of control	84 % of control	105 % of control	89 % of control	104 % of control	Residual activity (ROCK1; 1.0E-05 M): 92 % of control; Residual activity (ROCK1; 1.0E-06 M): 99 % of control; Residual activity (ROCK2; 1.0E-05 M): 102 % of control; Residual activity (ROCK2; 1.0E-06 M): 101 % of control; Residual activity (TSSK1; 1.0E-05 M): 105 % of control; Residual activity (TSSK1; 1.0E-06 M): 112 % of control
O=C(Nc1ccc(F)c(Nc2ccc3c(c2)CCCCC3=O)c1)c1cccc(F)c1 [Compound 109]	98 % of control	99 % of control	88 % of control	92 % of control	91 % of control	99 % of control	100 % of control	96 % of control	88 % of control	96 % of control	79 % of control	84 % of control	103 % of control	89 % of control	111 % of control	96 % of control	90 % of control	97 % of control	84 % of control	99 % of control	Residual activity (ROCK1; 1.0E-05 M): 102 % of control; Residual activity (ROCK1; 1.0E-06 M): 99 % of control; Residual activity (ROCK2; 1.0E-05 M): 98 % of control; Residual activity (ROCK2; 1.0E-06 M): 103 % of control; Residual activity (TSSK1; 1.0E-05 M): 102 % of control; Residual activity (TSSK1; 1.0E-06 M): 102 % of control
